Reference: ChEMBL document CHEMBL2074112 (Br J Cancer, 1996)

Target: ATP-dependent translocase ABCB1 (Homo sapiens, UniProt P08183)
Assay: TP_TRANSPORTER: increase in Rhodamine 123 intracellular accumulation (R123: 1.66 uM, Staurosporine: 80 uM) in MCF7/Adr cells
Type: functional, cell-based
Settings: nci/adr-res

ATP-dependent translocase ABCB1, sequence (P08183 whole entry): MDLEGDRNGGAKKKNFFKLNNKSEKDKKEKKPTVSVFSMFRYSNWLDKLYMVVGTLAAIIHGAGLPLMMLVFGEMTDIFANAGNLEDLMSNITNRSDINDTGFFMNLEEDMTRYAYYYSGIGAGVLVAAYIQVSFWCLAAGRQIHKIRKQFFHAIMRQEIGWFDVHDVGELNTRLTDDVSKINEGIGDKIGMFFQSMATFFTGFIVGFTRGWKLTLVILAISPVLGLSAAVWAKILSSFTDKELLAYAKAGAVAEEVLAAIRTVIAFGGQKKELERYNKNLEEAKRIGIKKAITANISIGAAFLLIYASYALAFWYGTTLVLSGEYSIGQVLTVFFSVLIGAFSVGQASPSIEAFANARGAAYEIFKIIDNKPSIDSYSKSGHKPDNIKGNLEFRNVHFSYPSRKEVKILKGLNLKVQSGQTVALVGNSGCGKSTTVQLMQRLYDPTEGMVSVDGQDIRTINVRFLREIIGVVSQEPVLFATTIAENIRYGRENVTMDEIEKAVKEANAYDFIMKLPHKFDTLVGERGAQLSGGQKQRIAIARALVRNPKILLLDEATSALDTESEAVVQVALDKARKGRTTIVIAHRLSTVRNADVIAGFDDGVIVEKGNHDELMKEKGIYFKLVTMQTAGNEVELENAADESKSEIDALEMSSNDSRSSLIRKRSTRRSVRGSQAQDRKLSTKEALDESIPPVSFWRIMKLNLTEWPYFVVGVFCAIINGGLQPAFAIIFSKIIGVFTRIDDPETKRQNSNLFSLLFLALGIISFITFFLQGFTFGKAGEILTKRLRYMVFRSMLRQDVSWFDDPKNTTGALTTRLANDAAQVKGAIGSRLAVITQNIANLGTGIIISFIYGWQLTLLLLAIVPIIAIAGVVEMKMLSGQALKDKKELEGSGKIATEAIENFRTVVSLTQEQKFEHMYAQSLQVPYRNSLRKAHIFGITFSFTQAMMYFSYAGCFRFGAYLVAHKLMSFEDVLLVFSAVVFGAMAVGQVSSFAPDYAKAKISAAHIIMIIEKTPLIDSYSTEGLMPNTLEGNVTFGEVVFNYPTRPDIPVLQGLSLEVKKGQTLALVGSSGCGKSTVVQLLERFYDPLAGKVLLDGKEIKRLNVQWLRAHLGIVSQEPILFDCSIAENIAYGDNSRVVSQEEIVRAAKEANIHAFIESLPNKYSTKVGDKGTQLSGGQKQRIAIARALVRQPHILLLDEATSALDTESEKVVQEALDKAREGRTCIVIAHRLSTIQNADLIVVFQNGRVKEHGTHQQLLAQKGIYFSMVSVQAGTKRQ

Molecule `CN[C@@H]1C[C@H]2O[C@@](C)([C@@H]1OC)n1c3ccccc3c3c4c(c5c6ccccc6n2c5c31)C(=O)NC4` [STAUROSPORINE] has an Activity of 140%.
